Several values for one entry are separate records, joined by “and”; a condition that tells them apart may be missing. Equal entries are not always repeated.
Key:
[1] = test system: trachealis muscle tissue; test: Inhibition of calcium dependent smooth muscle contraction, trachea (P#176 Trach); parameters: species or system dog; conditions: 50 mM KCl contraction; for inhibition at 0.03 µM / inhibition at 0.3 µM / inhibition at 2 µM / inhibition at 0.1 µM / inhibition at 0.01 µM / inhibition at 1 µM: Canis lupus familiaris, read-out: P#176 Trach % INHB/μM
Experimental: (§1) The test for inhibition of calcium dependent smooth muscle contraction is determined according to the following procedure:
(§2) The trachea and the aorta from dogs sacrificed by excess KCl injection are stored overnight at 4° C. in oxygenated Krebs-Henseleit buffer. Tracheal rings, one cartilage segment wide (5-10 mm), are cut starting from the bronchial end. Rings of aorta tissue of the same width are also prepared. After cutting the cartilage, the trachealis muscle tissue and the aorta tissue are suspended in oxygenated Krebs-Henseleit buffer at 37° C. in a 25 ml tissue bath. After a 60-minute equilibration period, the tissues are challenged with 10 μM carbachol. After 5 minutes, the tissues are rinsed and allowed to rest 50 minutes. The tissues are then challenged with 50 mM KCl and, after 30 minutes, the contractions are quantitated. The tissues are then rinsed and reequilibrated for 50 minutes. Test compounds are then added for 10 minutes, and the tissue is rechallenged with 50 mM KCl. After 30 minutes, the contraction is recorded and used to determine the % inhibition of control.
(§3) The percent inhibition of smooth muscle contraction is calculated from response data before and after drug treatment. [formula]

[2] = test system: aorta tissue; test: Inhibition of calcium dependent smooth muscle contraction, aorta (P#176 Aorta); parameters: species or system dog; conditions: 50 mM KCl contraction
Experimental: as §1, §2, §3

[3] = target: T1, Calcium Channel (3H-nitrendipine binding, heart membranes) (Oryctolagus cuniculus, UniProt P15381); test: Inhibition of 3H-nitrendipine binding (P#166 Nit. Binding); parameters: species or system rabbit; conditions: for IC50: rabbit heart membranes, 3H-nitrendipine 0.05-0.50 nM
T1 construct: the heart is immediately removed, cleaned and chopped into small pieces; The tissue is homogenized; from tissue; host or cells: heart membranes of female New Zealand white rabbits (42,000×g pellet)
Experimental: The assay for inhibition of nitrendipine binding is performed using the following procedure:
Female, New Zealand white rabbits (1-2 kg) are sacrificed by cervical dislocation, and the heart is immediately removed, cleaned and chopped into small pieces. The tissue is homogenized in 5×volume of 0.05M Hepes buffer, pH 7.4. The homogenate is centrifuged at 4000×g for 10 minutes, and the supernatant is recentrifuged at 42,000×g for 90 minutes. The resulting membrane pellet is resuspended (0.7 ml/g weight) in 0.05M Hepes, pH 7.4 and stored at […] until used. Each tube of the binding assay contains ^3 H-nitrendipine (0.05-0.50 nM), buffer, membranes (0.10 ml), and test compound in a total volume of 1.0 ml. After 90 minutes at 4° C., the bound nitrendipine is separated from the unbound by filtration on Whatman GF/C filters. After rinsing, the filters are dried and counted in a liquid scintillation counter.
Non-specific binding of ^3 H-nitrendipine (that amount bound in the presence of excess unlabelled nitrendipine) is subtracted from the total bound to obtain specifically bound radiolabeled nitrendipine. The amount of specifically bound nitrendipine in the presence of a test compound is compared to that amount bound in the absence of a compound. A percent displacement (or inhibition) can then be obtained.

[4] = Canis lupus familiaris, 0.1 μM, read-out: P#176 Aorta % INHB/μM
[5] = Canis lupus familiaris, 1.0 μM, read-out: P#176 Aorta % INHB/μM
[6] = Canis lupus familiaris, read-out: P#176 Aorta % INHB/μM
[7] = Canis lupus familiaris, 0.01 μM, read-out: P#176 Aorta % INHB/μM

T1 sequence (P15381 whole entry, other chains not shown): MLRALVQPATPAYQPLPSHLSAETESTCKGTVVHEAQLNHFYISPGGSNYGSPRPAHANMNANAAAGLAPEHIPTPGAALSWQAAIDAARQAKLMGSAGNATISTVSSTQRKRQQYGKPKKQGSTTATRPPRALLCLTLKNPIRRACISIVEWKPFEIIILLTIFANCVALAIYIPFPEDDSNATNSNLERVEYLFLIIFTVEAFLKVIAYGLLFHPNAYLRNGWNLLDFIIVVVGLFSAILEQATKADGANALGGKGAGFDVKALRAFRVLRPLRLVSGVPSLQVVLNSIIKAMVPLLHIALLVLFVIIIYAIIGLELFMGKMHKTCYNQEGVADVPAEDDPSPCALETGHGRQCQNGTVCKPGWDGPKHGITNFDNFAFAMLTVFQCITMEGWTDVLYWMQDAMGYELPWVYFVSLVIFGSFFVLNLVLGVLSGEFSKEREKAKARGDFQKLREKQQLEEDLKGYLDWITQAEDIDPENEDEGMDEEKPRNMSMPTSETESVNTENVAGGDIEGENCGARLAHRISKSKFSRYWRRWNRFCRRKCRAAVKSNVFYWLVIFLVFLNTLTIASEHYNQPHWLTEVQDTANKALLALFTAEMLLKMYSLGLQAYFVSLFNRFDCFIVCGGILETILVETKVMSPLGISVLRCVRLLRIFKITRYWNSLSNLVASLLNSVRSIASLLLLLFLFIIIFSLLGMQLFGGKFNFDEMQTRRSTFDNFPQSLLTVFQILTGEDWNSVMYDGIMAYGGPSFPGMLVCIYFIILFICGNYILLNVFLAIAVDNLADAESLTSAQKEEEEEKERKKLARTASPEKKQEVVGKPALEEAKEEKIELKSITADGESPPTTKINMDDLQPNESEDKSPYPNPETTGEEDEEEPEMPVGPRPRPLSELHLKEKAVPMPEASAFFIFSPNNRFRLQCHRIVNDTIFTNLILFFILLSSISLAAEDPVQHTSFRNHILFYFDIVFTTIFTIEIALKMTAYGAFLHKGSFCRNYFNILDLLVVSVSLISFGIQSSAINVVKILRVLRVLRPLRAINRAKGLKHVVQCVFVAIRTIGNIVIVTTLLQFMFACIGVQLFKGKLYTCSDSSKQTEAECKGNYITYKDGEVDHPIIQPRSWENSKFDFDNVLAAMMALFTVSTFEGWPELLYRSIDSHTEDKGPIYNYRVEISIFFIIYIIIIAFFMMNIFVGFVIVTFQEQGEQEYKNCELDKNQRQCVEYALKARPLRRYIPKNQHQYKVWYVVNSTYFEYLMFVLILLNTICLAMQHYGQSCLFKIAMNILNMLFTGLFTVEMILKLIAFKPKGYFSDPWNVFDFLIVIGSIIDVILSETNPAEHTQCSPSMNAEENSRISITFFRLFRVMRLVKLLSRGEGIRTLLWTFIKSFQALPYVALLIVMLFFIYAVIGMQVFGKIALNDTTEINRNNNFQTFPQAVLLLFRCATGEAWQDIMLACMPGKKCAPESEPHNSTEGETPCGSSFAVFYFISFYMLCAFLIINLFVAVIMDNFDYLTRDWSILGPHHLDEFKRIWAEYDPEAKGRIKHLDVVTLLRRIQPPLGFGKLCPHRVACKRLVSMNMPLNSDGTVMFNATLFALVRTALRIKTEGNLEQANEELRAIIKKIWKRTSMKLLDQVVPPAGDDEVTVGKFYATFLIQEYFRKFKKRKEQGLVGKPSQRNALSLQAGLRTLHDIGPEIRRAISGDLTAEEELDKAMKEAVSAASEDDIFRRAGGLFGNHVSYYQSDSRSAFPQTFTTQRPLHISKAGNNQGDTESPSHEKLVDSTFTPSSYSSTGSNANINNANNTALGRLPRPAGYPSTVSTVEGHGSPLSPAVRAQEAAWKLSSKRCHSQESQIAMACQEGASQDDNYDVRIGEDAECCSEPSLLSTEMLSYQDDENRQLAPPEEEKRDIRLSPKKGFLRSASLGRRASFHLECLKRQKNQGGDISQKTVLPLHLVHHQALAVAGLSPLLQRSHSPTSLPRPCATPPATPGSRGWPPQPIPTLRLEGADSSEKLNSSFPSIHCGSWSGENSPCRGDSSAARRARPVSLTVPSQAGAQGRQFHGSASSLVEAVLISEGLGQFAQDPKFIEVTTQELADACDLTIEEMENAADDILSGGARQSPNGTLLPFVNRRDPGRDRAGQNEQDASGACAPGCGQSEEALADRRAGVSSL
T1 sequence (P13806 27-960 partner limits assumed, other chains not shown): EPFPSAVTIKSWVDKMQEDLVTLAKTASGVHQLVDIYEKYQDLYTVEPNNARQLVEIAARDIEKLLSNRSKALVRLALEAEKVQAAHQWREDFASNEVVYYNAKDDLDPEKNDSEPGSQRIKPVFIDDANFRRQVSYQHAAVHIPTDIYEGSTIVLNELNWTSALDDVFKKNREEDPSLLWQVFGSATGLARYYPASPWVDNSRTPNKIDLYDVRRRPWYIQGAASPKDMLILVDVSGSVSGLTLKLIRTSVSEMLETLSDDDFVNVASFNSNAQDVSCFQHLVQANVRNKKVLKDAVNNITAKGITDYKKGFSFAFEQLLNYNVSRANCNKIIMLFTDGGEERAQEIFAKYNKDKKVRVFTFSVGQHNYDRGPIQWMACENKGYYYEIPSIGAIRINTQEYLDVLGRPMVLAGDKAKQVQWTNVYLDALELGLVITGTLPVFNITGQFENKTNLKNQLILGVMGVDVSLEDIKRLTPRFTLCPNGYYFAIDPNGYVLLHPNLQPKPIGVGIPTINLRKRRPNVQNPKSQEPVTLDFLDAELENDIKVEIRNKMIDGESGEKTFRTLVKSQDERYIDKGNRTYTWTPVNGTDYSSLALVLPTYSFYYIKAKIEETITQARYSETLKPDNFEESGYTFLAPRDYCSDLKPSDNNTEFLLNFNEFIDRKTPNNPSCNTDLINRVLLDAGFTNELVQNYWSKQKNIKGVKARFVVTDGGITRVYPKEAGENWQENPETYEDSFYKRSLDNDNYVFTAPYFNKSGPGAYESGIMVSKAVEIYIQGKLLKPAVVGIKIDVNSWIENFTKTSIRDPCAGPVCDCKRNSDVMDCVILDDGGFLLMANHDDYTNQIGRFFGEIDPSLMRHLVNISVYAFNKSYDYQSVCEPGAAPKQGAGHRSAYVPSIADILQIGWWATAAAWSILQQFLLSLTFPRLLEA
T1 sequence (P13806 961-1106 partner limits assumed, other chains not shown): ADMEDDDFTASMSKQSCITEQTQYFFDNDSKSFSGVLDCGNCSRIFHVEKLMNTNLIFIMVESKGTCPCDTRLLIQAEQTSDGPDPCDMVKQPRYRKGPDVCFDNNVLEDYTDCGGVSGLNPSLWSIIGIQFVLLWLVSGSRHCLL

CCOC(=O)C1=C(C)NC2=C(C1c1cccc(Cl)c1Cl)S(=O)(=O)CCNC2 (single isomer, unassigned) [2,3-dichloro / H / ethyl, Ethyl 9-(2,3-dichlorophenyl)-1,1-dioxo-2,3,4,5,6,9-hexahydro-7-methylpyrido[2,3-f][1,4]-thiazepine-8-carboxylate]
inhibition at 0.03 µM [1]: 25%
inhibition at 0.3 µM [1]: 24%

CCOC(=O)C1=C(C)NC2=C(C1c1cccc(Cl)c1Cl)S(=O)(=O)CCNC2 (single isomer, unassigned) [2,3-dichloro / H / ethyl] [Ethyl 9-(2,3-dichlorophenyl)-1,1-dioxo-2,3,4,5,6,9-hexahydro-7-methylpyrido[2,3-f][1,4]-thiazepine-8-carboxylate]
P#176 Trach % INHB/μM ([1]; 0.1 μM): 2% and 47%
P#176 Trach % INHB/μM ([1]; 2.0 μM): 54% and 96%
P#176 Aorta % INHB/μM ([2]; 0.01 μM): 0% and 14%
P#176 Aorta % INHB/μM ([2]; 0.1 μM): 0% and 67%
P#176 Aorta % INHB/μM ([2]; 1.0 μM): 69% and 97%

CCOC(=O)C1=C(C)NC2=C(C1c1cccc3nonc13)S(=O)(=O)CCNC2 (stereo not shown) [2,3-(2,1,3 oxadiazolyl) / H / ethyl]
IC50 [3]: 660 nM
inhibition at 0.3 µM [1]: 22%
inhibition at 2 µM ([1]; 2.0 μM): 68%
inhibition at 0.1 µM [2, 4]: 22%
inhibition at 1 µM [2, 5]: 83%

CCOC(=O)C1=C(C)NC2=C(C1c1cccc(Cl)c1Cl)S(=O)(=O)CCN(C(=O)OC(C)(C)C)C2 (stereo not shown) [2,3-dichloro / BOC / ethyl, Ethyl 9-(2,3-Dichlorophenyl)-4-(t-butyloxycarbonyl) -1,1-dioxo-2,3,4,5,6,9-hexahydro-7-methylpyrido[2,3-f][1,4]thiazepine-8-carboxylate]
inhibition at 1 µM ([3]; @ 1.0 μM test compound): 32%
inhibition at 2 µM ([1]; 2.0 μM): 0%
inhibition at 0.3 µM [2, 6]: 4%
inhibition at 1 µM [2, 5]: 18%

CCOC(=O)C1=C(C)NC2=C(C1c1cccc(Cl)c1Cl)S(=O)(=O)CCN(Cc1ccccc1)C2 (stereo not shown) [2,3-dichloro / Bz / ethyl, Ethyl 4-N-Benzyl-9-(2,3-dichlorophenyl) -1,1-dioxo-2,3,4,5,6,9-hexahydro-7-methylpyrido [2,3-f][1,4]thiazepine-8-carboxylate]
IC50 [3]: 210 nM
inhibition at 0.1 µM ([1]; 0.1 μM): 10%
inhibition at 2 µM ([1]; 2.0 μM): 32%
inhibition at 1 µM [2, 5]: 79%

CCOC(=O)C1=C(C)NC2=C(C1c1cccc(Cl)c1Cl)S(=O)(=O)c1ccccc1N(C=O)C2 (stereo not shown) [2,3-dichloro / CHO / ethyl, Ethyl 4-(2,3-dichlorophenyl)-5,5-dioxo-10-formyl-2-methyl-1,4,10,11-tetrahydropyrido[3,2-b][1,5]-benzothiazepine-3-carboxylate]
inhibition at 0.01 µM [1]: 38%
inhibition at 0.3 µM [1]: 35%
inhibition at 2 µM ([1]; 2.0 μM): 73%
inhibition at 0.01 µM [2, 7]: 33%
inhibition at 0.1 µM [2, 4]: 50%
inhibition at 1 µM [2, 5]: 74%

CCOC(=O)C1=C(C)NC2=C(C1c1cccc(Cl)c1Cl)S(=O)(=O)CCN(CC)C2 (stereo not shown) [2,3-dichloro / Et / ethyl, Ethyl 9-(2,3-dichlorophenyl)-1,1-dioxo-4-ethyl-2,3,4,5,6,9-hexahydro-7-methyl-pyrido[2,3-f][1,4]-thiazepine-8-carboxylate]
IC50 [3]: 60 nM
inhibition at 0.01 µM [1]: 33%
inhibition at 0.3 µM [1]: 70%
inhibition at 1 µM [1]: 90%
inhibition at 0.01 µM [2, 7]: 19%
inhibition at 0.1 µM [2, 4]: 76%
inhibition at 1 µM [2, 5]: 96%

CC(=O)OCCOC(=O)C1=C(C)NC2=C(C1c1cccc(Cl)c1Cl)S(=O)(=O)CCNC2 (stereo not shown) [2,3-dichloro / H / 2-acetoxyethyl, 2-Acetoxyethyl 9-(2,3-Dichlorophenyl) -1,1-dioxo-2,3,4,5,6,9-hexahydro-7-methylpyrido [2,3-f][1,4]thiazepine-8-carboxylate]
inhibition at 0.1 µM [2, 4]: 18%
inhibition at 0.3 µM [2, 6]: 62%
inhibition at 1 µM [2, 5]: 72%

CC1=C(C(=O)OCCO)C(c2cccc(Cl)c2Cl)C2=C(CNCCS2(=O)=O)N1 (stereo not shown) [2,3-dichloro / H / 2-hydroxyethyl]
inhibition at 1 µM [2, 5]: 0%
inhibition at 10 µM [2, 6]: 56%

CC1=C(C(=O)OCCN(C)Cc2ccccc2)C(c2cccc(Cl)c2Cl)C2=C(CNCCS2(=O)=O)N1 (stereo not shown) [2,3-dichloro / H / NBzNMe-ethyl, 2-(N-benzyl-N-methylamino)ethyl 9-(2,3-dichlorophenyl)-1,1-dioxo-2,3,4,5,6,9-hexahydro-7-methylpyrido[2,3-f][1,4]thiazepine-8-carboxylate]
IC50 [3]: 380 nM
inhibition at 0.1 µM ([1]; 0.1 μM): 23%
inhibition at 0.3 µM [1]: 62%
inhibition at 2 µM ([1]; 2.0 μM): 86%
inhibition at 0.03 µM ([2]; Canis lupus familiaris, 0.03 μM, read-out: P#176 Aorta % INHB/μM): 20%
inhibition at 0.1 µM [2, 4]: 48%
inhibition at 1 µM [2, 5]: 93%

CCOC(=O)C1=C(C)NC2=C(C1c1cccc(Cl)c1Cl)S(=O)(=O)CCNC2 (stereo not shown) [2,3-dichloro / H / ethyl, Ethyl 9-(2,3-dichlorophenyl)-1,1-dioxo-2,3,4,5,6,9-hexahydro-7-methyl-pyrido[2,3-f][1,4]thiazepine-8-carboxylate]
IC50 [3]: 99 nM and 105 nM
inhibition at 0.1 µM ([1]; 0.1 μM): 43%
inhibition at 1 µM [1]: 73%
inhibition at 0.01 µM [2, 7]: 21%
inhibition at 0.1 µM [2, 4]: 85%
inhibition at 1 µM [2, 5]: 96%

CC(=O)OCCOC(=O)C1=C(C)NC2=C(C1c1cccc(Cl)c1Cl)S(=O)(=O)CCN(C)C2 (stereo not shown) [2,3-dichloro / Me / 2-acetoxyethyl, 2-Acetoxyethyl 9-(2,3-dichlorophenyl)-4,7-dimethyl-1,1-dioxo-2,3,4,5,6,9-hexahydropyrido[2,3-f][1,4]-thiazepine-8-carboxylate]
inhibition at 0.01 µM [2, 7]: 0%
inhibition at 0.1 µM [2, 4]: 26%
inhibition at 1 µM [2, 5]: 89%

CC1=C(C(=O)OCCO)C(c2cccc(Cl)c2Cl)C2=C(CN(C)CCS2(=O)=O)N1 (stereo not shown) [2,3-dichloro / Me / 2-hydroxyethyl]
inhibition at 0.1 µM [2, 4]: 14%
inhibition at 1 µM [2, 5]: 62%
inhibition at 3 µM ([2]; Canis lupus familiaris, 3.0 μM, read-out: P#176 Aorta % INHB/μM): 77%
inhibition at 10 µM [2, 6]: 95%

CC1=C(C(=O)OCCN(C)Cc2ccccc2)C(c2cccc(Cl)c2Cl)C2=C(CN(C)CCS2(=O)=O)N1 (stereo not shown) [2,3-dichloro / Me / NBzNMe-ethyl]
IC50 [3]: 150 nM
inhibition at 0.03 µM [1]: 28%
inhibition at 0.1 µM ([1]; 0.1 μM): 54%
inhibition at 0.3 µM [1]: 71%
inhibition at 2 µM ([1]; 2.0 μM): 88%

CCOC(=O)C1=C(C)NC2=C(C1c1cccc(Cl)c1Cl)S(=O)(=O)CCN(C(=O)CN)C2 (stereo not shown) [2,3-dichloro / NH2 CH2 CO / ethyl]
inhibition at 0.3 µM [1]: 6%
inhibition at 2 µM ([1]; 2.0 μM): 36%
inhibition at 1 µM [2, 5]: 20%

CCCCCCCN1CCS(=O)(=O)C2=C(C1)NC(C)=C(C(=O)OCC)C2c1cccc(Cl)c1Cl (stereo not shown) [2,3-dichloro / hept / ethyl]
inhibition at 2 µM ([1]; 2.0 μM): 27%
inhibition at 0.1 µM [2, 4]: 4%

CCOC(=O)C1=C(C)NC2=C(C1c1ccccc1[N+](=O)[O-])S(=O)(=O)CCNC2 (stereo not shown) [2-nitro / H / ethyl]
inhibition at 0.1 µM ([1]; 0.1 μM): 12%
inhibition at 0.3 µM [1]: 45%
inhibition at 2 µM ([1]; 2.0 μM): 75%
inhibition at 0.01 µM [2, 7]: 27%
inhibition at 0.1 µM [2, 4]: 47%
inhibition at 1 µM [2, 5]: 77%

CCOC(=O)C1=C(C)NC2=C(C1c1cccc([N+](=O)[O-])c1)S(=O)(=O)CCN(CC)C2 (stereo not shown) [3-nitro / Et / ethyl, Ethyl 1,1-dioxo-4-ethyl-2,3,4,5,6,9-hexahydro-7-methyl-9-(3-nitrophenyl)-pyrido[2,3-f][1,4]-thiazepine-8-carboxylate]
inhibition at 0.03 µM [1]: 50%
inhibition at 0.1 µM ([1]; 0.1 μM): 73%
inhibition at 0.3 µM [1]: 92%
inhibition at 0.01 µM [2, 7]: 5%
inhibition at 0.1 µM [2, 4]: 73%
